Data published in patent publication US20150246902A1, “SUBSTITUED BENZOFURAN COMPOUNDS AND METHODS OF USE THEREOF FOR THE TREATMENT OF VIRAL DISEASES” (priority 2011, published 2015).

Key:
HCV replicon genotype 1b = test: microbe, parasite or virus in culture; type: cell-based; conditions: Hepatitis C virus, 96 h, HCV genotype 1b replicon cells, 96 hours incubation, NS3/4A ELISA readout
HCV replicon genotype 1a = test: microbe, parasite or virus in culture; type: cell-based; conditions: Hepatitis C virus, 96 h, HCV genotype 1a replicon cells, 96 hours incubation, NS3/4A ELISA readout

SMILES | IC50 (HCV replicon genotype 1b) [nM] | IC50 (HCV replicon genotype 1a) [nM]
CNC(=O)c1c(-c2ccc(F)cc2)oc2cc(N(C)S(C)(=O)=O)c(-c3ccc4nc(-c5ccccc5)cn4c3)cc12 [Compound 88, 2-(4-fluorophenyl)-N-methyl-6-(N-methylmethylsulfonamido)-5-(2-phenylimidazo[1,2-a]pyridin-6-yl)benzofuran-3-carboxamide] | 7 | 50.1
CNC(=O)c1c(-c2ccc(F)cc2)oc2cc(N(C)S(C)(=O)=O)c(-c3cc(OC)c4nc(C)n(-c5cc(F)cc(F)c5)c4c3)cc12 [Compound 37] | 4.3 | 6.8
CNC(=O)c1c(-c2ccc(F)cc2)oc2cc(N(C)S(C)(=O)=O)c(-c3ccc4ncn(-c5ccc(S(C)(=O)=O)cc5)c4c3)cc12 [Compound 13] | 3.8 | 18.2
CNC(=O)c1c(-c2ccc(F)cc2)oc2cc(N(C)S(C)(=O)=O)c(-c3ccc4ccn(-c5ccncc5)c4c3)cc12 [Compound 51] | 7.8 | 34.6
CNC(=O)c1c(-c2ccc(F)cc2)oc2cc(N(C)S(C)(=O)=O)c(-c3cccc4nc(-c5ccccc5)oc34)cc12 [Compound 85] | 235 | 460
CNC(=O)c1c(-c2ccc(F)cc2)oc2cc(N(C)S(C)(=O)=O)c(-c3ccc4ccn(-c5ccc(F)cc5)c4n3)cc12 [Compound 64] | 76.1 | 409
CNC(=O)c1c(-c2ccc(F)cc2)oc2cc(N(C)S(C)(=O)=O)c(-c3ccc4ncn(-c5cccc(Cl)c5)c4c3)cc12 [Compound 12] | 2.6 | 11.7
CNC(=O)c1c(-c2ccc(F)cc2)oc2cc(N(C)S(C)(=O)=O)c(-c3cn4c(-c5ccc(F)cc5)cnc4cn3)cc12 [Compound 91, 2-(4-fluorophenyl)-5-(3-(4-fluorophenyl)imidazo[1,2-a]pyrazin-6-yl)-N-methyl-6-(N-methylmethylsulfonamido)benzofuran-3-carboxamide] | 8.1 | 48.2
CNC(=O)c1c(-c2ccc(F)cc2)oc2cc(N(C)S(C)(=O)=O)c(-c3ccc4ncn(-c5ccc(F)cn5)c4c3)cc12 [Compound 35] | 5.9 | 35.2
CNC(=O)c1c(-c2ccc(F)cc2)oc2cc(N(C)S(C)(=O)=O)c(-c3ccc4c(c3)ncn4-c3cccnc3)cc12 [Compound 22] | 3.3 | 14.4
CNC(=O)c1c(-c2ccc(F)cc2)oc2cc(N(C)S(C)(=O)=O)c(-c3ccc4ncn(-c5cccnc5)c4c3)cc12 [Compound 16] | 4.6 | 37.2
CNC(=O)c1c(-c2ccc(F)cc2)oc2cc(N(C)S(C)(=O)=O)c(-c3ccc4ccn(-c5cc(F)cc(F)c5)c4n3)cc12 [Compound 65] | 115 | 1520
CNC(=O)c1c(-c2ccc(F)cc2)oc2cc(N(C)S(C)(=O)=O)c(-c3ccc4ncn(-c5cncc(F)c5)c4c3)cc12 [Compound 36] | 6.5 | 36.2
CNC(=O)c1c(-c2ccc(F)cc2)oc2cc(N(C)S(C)(=O)=O)c(-c3ccc4[nH]ccc4c3)cc12 [Compound 62] | 22.9 | 183
CNC(=O)c1c(-c2ccc(F)cc2)oc2cc(N(C)S(C)(=O)=O)c(-c3ccc4ncn(C5CCN(C(=O)OC(C)(C)C)CC5)c4c3)cc12 [Compound 23] | 8.2 | 36.7
CNC(=O)c1c(-c2ccc(F)cc2)oc2cc(N(C)S(C)(=O)=O)c(-c3ccc4ncn(-c5cccc(C#N)c5)c4c3)cc12 [Compound 6] | 1.2 | 10.6
CNC(=O)c1c(-c2ccc(F)cc2)oc2cc(N(C)S(C)(=O)=O)c(-c3cc(F)c4[nH]c(=O)n(-c5cc(F)cc(F)c5)c4c3)cc12 [Compound 81] | 5.2 | 30.3
CNC(=O)c1c(-c2ccc(F)cc2)oc2cc(N(C)S(C)(=O)=O)c(-c3ccc4c(n3)nc(-c3ccccc3)n4C(C)(C)C)cc12 [Compound 100, 5-(1-(tert-butyl)-2-phenyl-1H-imidazo[4,5-b]pyridin-5-yl)-2-(4-fluorophenyl)-N-methyl-6-(N-methylmethylsulfonamido)benzofuran-3-carboxamide] | 73 | 297
CNC(=O)c1c(-c2ccc(F)cc2)oc2cc(N(C)S(C)(=O)=O)c(-c3ccc4nc(-c5ccc(F)cc5)cn4n3)cc12 [Compound 113] | 14.9 | 186
CNC(=O)c1c(-c2ccc(F)cc2)oc2cc(N(C)S(C)(=O)=O)c(-c3cc(OC)c4[nH]c(=O)n(-c5cc(F)cc(F)c5)c4c3)cc12 [Compound 80, 5-(3-(3,5-difluorophenyl)-7-methoxy-2-oxo-2,3-dihydro-1H-benzo[d]imidazol-5-yl)-2-(4-fluorophenyl)-N-methyl-6-(N-methylmethylsulfonamido)benzofuran-3-carboxamide] | 6.6 | 9

SMILES | IC50 (HCV replicon genotype 1b) [nM] | IC50 (HCV replicon genotype 1a) [nM]
CNC(=O)c1c(-c2ccc(F)cc2)oc2cc(N(C)S(C)(=O)=O)c(-c3cc(F)c4ncn(-c5ccc(F)cc5)c4c3)cc12 [Compound 28] | 3.3 | 4.2
CNC(=O)c1c(-c2ccc(F)cc2)oc2cc(N(C)S(C)(=O)=O)c(-c3ccc4ncn(-c5ccc(C#N)cc5)c4c3)cc12 [Compound 5] | 0.8 | 2.1
CNC(=O)c1c(-c2ccc(F)cc2)oc2cc(N(C)S(C)(=O)=O)c(-c3cc4c(cn3)ncn4-c3cc(F)cc(F)c3)cc12 [Compound 45] | 14.4 | 94.8
CNC(=O)c1c(-c2ccc(F)cc2)oc2cc(N(C)S(C)(=O)=O)c(-c3cnc4ccn(-c5ccc(C(F)(F)F)cc5)c4c3)cc12 [Compound 48] | 3.3 | 2.6
CNC(=O)c1c(-c2ccc(F)cc2)oc2cc(N(C)S(C)(=O)=O)c(-c3ccc4ccn(-c5cccc(F)c5)c4c3)cc12 [Compound 60] | 4.4 | 45.4
CNC(=O)c1c(-c2ccc(F)cc2)oc2cc(N(C)S(C)(=O)=O)c(-c3cc(F)c4ncn(-c5cc(F)c(F)c(F)c5)c4c3)cc12 [Compound 31] | 3.1 | 3.4
CNC(=O)c1c(-c2ccc(F)cc2)oc2cc(N(C)S(C)(=O)=O)c(-c3ccc4[nH]c(=O)n(-c5ccc(F)cc5)c4c3)cc12 [Compound 82] | 4.9 | 23
CNC(=O)c1c(-c2ccc(F)cc2)oc2cc(N(C)S(C)(=O)=O)c(-c3ccc4ncn(-c5ccc(Cl)cc5)c4c3)cc12 [Compound 10] | 3.6 | 4
CNC(=O)c1c(-c2ccc(F)cc2)oc2cc(N(C)S(C)(=O)=O)c(-c3cc(F)c4ncn(-c5ccc(F)c(C(N)=O)c5)c4c3)cc12 [Compound 110] | 13.8 | 111
CNC(=O)c1c(-c2ccc(F)cc2)oc2cc(N(C)S(C)(=O)=O)c(-c3ccc4[nH]c(-c5ccccc5)nc4n3)cc12 [Compound 101] | 17 | 79.1
CNC(=O)c1c(-c2ccc(F)cc2)oc2cc(N(C)S(C)(=O)=O)c(-c3cc(F)c4nc(C)n(-c5cc(F)cc(F)c5)c4c3)cc12 [Compound 34] | 4.3 | 24.8
CNC(=O)c1c(-c2ccc(F)cc2)oc2cc(N(C)S(C)(=O)=O)c(-c3ccc4ncn(-c5ccc(OC)cc5)c4c3)cc12 [Compound 1, 2-(4-fluorophenyl)-5-(1-(4-methoxyphenyl)-1H-benzo[d]imidazol-6-yl)-N-methyl-6-(N-methylmethylsulfonamido)benzofuran-3-carboxamide] | 4.6 | 16.5
CNC(=O)c1c(-c2ccc(F)cc2)oc2cc(N(C)S(C)(=O)=O)c(-c3cc(F)c4ncn(-c5ccc(F)c(F)c5)c4c3)cc12 [Compound 29] | 3.3 | 5
CNC(=O)c1c(-c2ccc(F)cc2)oc2cc(N(C)S(C)(=O)=O)c(-c3ccc4ccn(Cc5ccc(F)cc5)c4c3)cc12 [Compound 68] | 18.6 | 54.2
CNC(=O)c1c(-c2ccc(F)cc2)oc2cc(N(C)S(C)(=O)=O)c(-c3ccc4[nH]c(-c5ccccc5)cc4c3)cc12 [Compound 103, 2-(4-fluorophenyl)-N-methyl-6-(N-methylmethylsulfonamido)-5-(2-phenyl-1H-indol-5-yl)benzofuran-3-carboxamide] | 101 | 1100
CNC(=O)c1c(-c2ccc(F)cc2)oc2cc(N(C)S(C)(=O)=O)c(-c3ccc4ccn(-c5cccnc5)c4c3)cc12 [Compound 52] | 7.1 | 42.9
CNC(=O)c1c(-c2ccc(F)cc2)oc2cc(N(C)S(C)(=O)=O)c(-c3cc(-c4nc5ncccc5o4)c4occc4c3)cc12 [Compound 97, 2-(4-fluorophenyl)-N-methyl-6-(N-methylmethylsulfonamido)-7′-(oxazolo[4,5-b]pyridin-2-yl)-[5,5′-bibenzofuran]-3-carboxamide] | 1.3 | 2.7
CNC(=O)c1c(-c2ccc(F)cc2)oc2cc(N(C)S(C)(=O)=O)c(-c3cc4c(cn3)ncn4-c3ccc(F)cc3)cc12 [Compound 46] | 10.7 | 74.5
CNC(=O)c1c(-c2ccc(F)cc2)oc2cc(N(C)S(C)(=O)=O)c(-c3ccc4ccn(-c5ccc(C(F)(F)F)cc5)c4c3)cc12 [Compound 61] | 10.1 | 34.2
